Data published in ChEMBL document CHEMBL4422658, “Calixarene-based phosphinic acids as inhibitors of protein tyrosine phosphatases” (Bioorg Med Chem Lett, 2019).

Key:
[1] = target: T1, Tyrosine-protein phosphatase non-receptor type 11 (Homo sapiens, UniProt Q06124); assay: Inhibition of recombinant human SHP2 expressed in Escherichia coli using […] as substrate preincubated with substrate for 5 mins followed by enzyme addition
T1 sequence (Q06124 whole entry): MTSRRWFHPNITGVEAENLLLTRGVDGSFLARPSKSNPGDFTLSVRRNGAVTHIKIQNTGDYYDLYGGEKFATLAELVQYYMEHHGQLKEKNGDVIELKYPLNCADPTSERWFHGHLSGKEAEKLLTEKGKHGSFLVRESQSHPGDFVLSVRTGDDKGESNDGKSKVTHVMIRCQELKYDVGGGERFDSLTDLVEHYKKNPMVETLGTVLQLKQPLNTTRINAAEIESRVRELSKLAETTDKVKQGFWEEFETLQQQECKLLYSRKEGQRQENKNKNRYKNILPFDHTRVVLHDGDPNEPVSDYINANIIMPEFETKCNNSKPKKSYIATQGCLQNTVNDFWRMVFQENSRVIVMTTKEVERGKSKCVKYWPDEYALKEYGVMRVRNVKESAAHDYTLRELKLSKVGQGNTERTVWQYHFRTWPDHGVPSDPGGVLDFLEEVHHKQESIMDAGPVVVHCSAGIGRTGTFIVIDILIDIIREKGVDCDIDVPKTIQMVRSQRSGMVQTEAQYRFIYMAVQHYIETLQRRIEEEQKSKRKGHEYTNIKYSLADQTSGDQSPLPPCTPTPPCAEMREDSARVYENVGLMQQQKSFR

[2] = target: T2, Tyrosine-protein phosphatase non-receptor type 9 (Homo sapiens, UniProt P43378); assay: Inhibition of recombinant human N-terminal GST-tagged MEG2 catalytic domain (285 to 593 residues) expressed in Escherichia coli using […] as substrate preincubated with substrate for 5 mins followed by enzyme addition
T2 sequence (P43378 whole entry): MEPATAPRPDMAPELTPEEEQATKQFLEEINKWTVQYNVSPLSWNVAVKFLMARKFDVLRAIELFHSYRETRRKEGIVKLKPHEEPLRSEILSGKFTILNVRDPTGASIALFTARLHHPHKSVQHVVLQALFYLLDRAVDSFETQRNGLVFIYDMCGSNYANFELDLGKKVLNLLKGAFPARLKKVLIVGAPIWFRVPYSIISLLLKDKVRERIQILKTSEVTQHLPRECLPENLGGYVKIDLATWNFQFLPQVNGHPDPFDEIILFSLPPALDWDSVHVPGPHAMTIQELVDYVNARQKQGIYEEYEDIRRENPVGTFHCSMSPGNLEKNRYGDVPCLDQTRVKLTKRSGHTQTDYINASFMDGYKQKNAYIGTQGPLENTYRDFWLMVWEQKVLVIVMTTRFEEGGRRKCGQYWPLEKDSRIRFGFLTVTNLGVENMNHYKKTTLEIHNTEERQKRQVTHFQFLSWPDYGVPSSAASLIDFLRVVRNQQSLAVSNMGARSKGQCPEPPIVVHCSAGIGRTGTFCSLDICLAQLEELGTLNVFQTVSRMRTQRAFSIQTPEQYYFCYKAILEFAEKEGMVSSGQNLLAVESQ

[3] = target: T3, Tyrosine-protein phosphatase non-receptor type 2 (Homo sapiens, UniProt P17706); assay: Inhibition of recombinant human N-terminal GST-tagged TCPTP catalytic domain (2 to 315 residues) expressed in Escherichia coli using […] as substrate preincubated with substrate for 5 mins followed by enzyme addition
T3 sequence (P17706 whole entry): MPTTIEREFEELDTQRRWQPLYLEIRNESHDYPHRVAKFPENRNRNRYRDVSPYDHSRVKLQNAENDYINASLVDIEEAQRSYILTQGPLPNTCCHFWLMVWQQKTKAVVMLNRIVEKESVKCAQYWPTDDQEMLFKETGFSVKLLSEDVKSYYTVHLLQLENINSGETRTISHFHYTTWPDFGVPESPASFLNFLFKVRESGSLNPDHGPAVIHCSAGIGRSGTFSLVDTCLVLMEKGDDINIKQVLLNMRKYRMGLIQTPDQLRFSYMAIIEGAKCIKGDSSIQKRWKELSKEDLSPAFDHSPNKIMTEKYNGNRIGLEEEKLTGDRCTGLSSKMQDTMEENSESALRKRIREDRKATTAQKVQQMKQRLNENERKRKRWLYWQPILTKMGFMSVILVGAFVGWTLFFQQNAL

[4] = target: T4, Tyrosine-protein phosphatase non-receptor type 4 (Homo sapiens, UniProt P29074); assay: Inhibition of recombinant human N-terminal GST-tagged MEG1 catalytic domain (637 to 926 residues) expressed in Escherichia coli using […] as substrate preincubated with substrate for 5 mins followed by enzyme addition
T4 sequence (P29074 whole entry): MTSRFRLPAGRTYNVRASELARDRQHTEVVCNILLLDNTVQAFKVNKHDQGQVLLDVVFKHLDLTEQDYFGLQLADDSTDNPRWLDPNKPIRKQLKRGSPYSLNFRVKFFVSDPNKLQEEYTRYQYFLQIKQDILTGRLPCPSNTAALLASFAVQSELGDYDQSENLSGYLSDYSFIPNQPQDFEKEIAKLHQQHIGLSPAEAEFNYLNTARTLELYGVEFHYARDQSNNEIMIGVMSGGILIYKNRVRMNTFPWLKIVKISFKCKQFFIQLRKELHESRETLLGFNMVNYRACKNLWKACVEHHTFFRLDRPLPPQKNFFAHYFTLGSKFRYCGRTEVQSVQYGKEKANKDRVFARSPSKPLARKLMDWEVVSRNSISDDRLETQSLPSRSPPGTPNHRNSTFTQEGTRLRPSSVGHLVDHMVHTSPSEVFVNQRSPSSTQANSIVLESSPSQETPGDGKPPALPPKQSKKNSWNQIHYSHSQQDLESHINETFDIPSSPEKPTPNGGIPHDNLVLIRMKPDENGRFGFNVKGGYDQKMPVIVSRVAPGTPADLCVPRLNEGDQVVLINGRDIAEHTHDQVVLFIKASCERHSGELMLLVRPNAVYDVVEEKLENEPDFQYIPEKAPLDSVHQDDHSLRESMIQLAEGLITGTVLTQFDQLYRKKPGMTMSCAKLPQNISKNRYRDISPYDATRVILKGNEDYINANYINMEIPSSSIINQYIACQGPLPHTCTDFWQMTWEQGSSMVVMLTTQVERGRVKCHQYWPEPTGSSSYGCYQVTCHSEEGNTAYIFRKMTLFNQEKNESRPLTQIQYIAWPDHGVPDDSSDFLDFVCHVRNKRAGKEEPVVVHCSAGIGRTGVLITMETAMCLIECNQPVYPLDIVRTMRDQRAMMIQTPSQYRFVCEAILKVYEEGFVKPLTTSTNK

[5] = target: T5, Tyrosine-protein phosphatase non-receptor type 1 (Homo sapiens, UniProt P18031); assay: Inhibition of recombinant human PTP1B expressed in Escherichia coli using […] as substrate preincubated with substrate for 5 mins followed by enzyme addition
T5 sequence (P18031 whole entry): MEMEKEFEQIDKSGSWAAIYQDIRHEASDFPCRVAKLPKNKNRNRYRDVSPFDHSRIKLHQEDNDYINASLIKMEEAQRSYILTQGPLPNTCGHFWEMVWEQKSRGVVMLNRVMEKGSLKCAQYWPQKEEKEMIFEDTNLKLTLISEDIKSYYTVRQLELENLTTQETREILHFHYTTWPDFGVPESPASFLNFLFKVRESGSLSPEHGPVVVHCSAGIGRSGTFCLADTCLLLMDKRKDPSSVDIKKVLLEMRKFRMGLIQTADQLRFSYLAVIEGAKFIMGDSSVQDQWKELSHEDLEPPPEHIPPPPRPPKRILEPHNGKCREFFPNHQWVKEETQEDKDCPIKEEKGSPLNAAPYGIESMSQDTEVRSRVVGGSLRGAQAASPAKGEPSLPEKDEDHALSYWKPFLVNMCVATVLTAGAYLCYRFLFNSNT

[6] = target: T5, Tyrosine-protein phosphatase non-receptor type 1; assay: Competitive inhibition of recombinant human PTP1B expressed in Escherichia coli using varying levels of […] as substrate by Lineweaver-burk plot analysis
Homo sapiens [7] = species: Homo sapiens; assay: Selectivity ratio of IC50 for recombinant human N-terminal GST-tagged TCPTP catalytic domain (2 to 315 residues) expressed in Escherichia coli to IC50 for recombinant human PTP1B expressed in Escherichia coli
Homo sapiens [8] = species: Homo sapiens; assay: Selectivity ratio of IC50 for recombinant human N-terminal GST-tagged MEG1 catalytic domain (637 to 926 residues) expressed in Escherichia coli to IC50 for recombinant human PTP1B expressed in Escherichia coli
Homo sapiens [9] = species: Homo sapiens; assay: Selectivity ratio of IC50 for recombinant human N-terminal GST-tagged MEG2 catalytic domain (285 to 593 residues) expressed in Escherichia coli to IC50 for recombinant human PTP1B expressed in Escherichia coli
Homo sapiens [10] = species: Homo sapiens; assay: Selectivity ratio of IC50 for recombinant human SHP2 expressed in Escherichia coli to IC50 for recombinant human PTP1B expressed in Escherichia coli

Structure (SMILES)	IC50 [1] [nM]	IC50 [2] [nM]	IC50 [3] [nM]	IC50 [4] [nM]	IC50 [5] [nM]	Ki [6] [nM]	Ratio IC50 (Homo sapiens [7])	Ratio IC50 (Homo sapiens [8])	Ratio IC50 (Homo sapiens [9])	Ratio IC50 (Homo sapiens [10])
O=P(O)(Cc1cc2c(O)c(c1)S(=O)(=O)c1cc(CP(=O)(O)c3ccccc3)cc(c1O)S(=O)(=O)c1cc(CP(=O)(O)c3ccccc3)cc(c1O)S(=O)(=O)c1cc(CP(=O)(O)c3ccccc3)cc(c1O)S2(=O)=O)c1ccccc1	500	410	280	180	79	32				
CCOP(=O)(O)Cc1cc2c(O)c(c1)Sc1cc(CP(=O)(O)OCC)cc(c1O)Sc1cc(CP(=O)(O)OCC)cc(c1O)Sc1cc(CP(=O)(O)OCC)cc(c1O)S2							15			
O=P(O)(Cc1cc2c(O)c(c1)Sc1cc(CP(=O)(O)c3ccccc3)cc(c1O)Sc1cc(CP(=O)(O)c3ccccc3)cc(c1O)Sc1cc(CP(=O)(O)c3ccccc3)cc(c1O)S2)c1ccccc1	3700	5900	6800	5400	380	140	15	10 to 18	10 to 18	10 to 18
O=P(O)(Cc1cc2c(O)c(c1)Cc1cc(CP(=O)(O)c3ccccc3)cc(c1O)Cc1cc(CP(=O)(O)c3ccccc3)cc(c1O)Cc1cc(CP(=O)(O)c3ccccc3)cc(c1O)C2)c1ccccc1	4600	2400	20000	30000	2800					
